Assay [1] has as its target T1, N-his8-TEV-hPARG (389-976) (Homo sapiens, UniProt Q86W56).
T1 construct: N-his8-TEV-hPARG (389-976); His8 (N); TEV protease cleavage site (N); made in house; host or cells: E. coli BL21(DE3)
Description: PARG Biochemical Enzymatic Assay (PARG inhibition HTRF assay). As to conditions: 62.5 pM PARG, 5 nM Biotin-Parylated PARP1 substrate, 60 minutes preincubation, 10 minutes reaction at 23 °C. The protocol:
PARG Biochemical Enzymatic Assay
TEV-His8-PolyADP-Ribose Polymerase 1 (379-1014) (PARP1) and N-his8-TEV-hPARG (389-976) were used to transform BL21(DE3) competent cells followed by growth for 1 hour at 37 °C and plating on Kanamycin resistant agar plates. A single colony was then inoculated into 1 ml of Luria Broth and expansion into a 1 liter scale for growth at 37 °C for 3 hours. Expression was induced via 0.2 mM IPTG induction for 20 hours at 16 °C in BL21(DE3) E. coli. Purification was then performed using a Nickel column, size exclusion chromatography and HPLC analysis.
For substrate preparation, […] nicked DNA and 2 μM PARP1 protein were mixed for 10 minutes at 25 °C 10 μM biotin-NAD+ and 100 μM NAD+ were then added and incubated for 60 minutes at 30 °C to yield PARylated PARP1 substrate.
For compound screening, compounds were serially diluted to a 3× final concentration in assay buffer (Tris pH7.5 50 mM, KCl 50 mM, Tween-20 0.01%, BSA 0.1 mg/ml, EDTA 3 mM, EGTA 0.4 mM, DTT 1 mM) containing 1% DMSO. A top concentration of 1.5 μM for a 10-point dose response curve using a 1:3 dilution curve was used. 2.5×PARG (156.25 pM working concentration, 62.5 pM final concentration) was prepared in assay buffer and 4 ul added to a 384 well assay plate containing 2 μl of serially diluted compound. The plate was then centrifuged for 10 seconds and incubated for 60 minutes at 23 °C. 4 μl of 2.5× Biotin-Parylated PARP1 (12.5 nM working concentration, 5 nM final concentration) was then added to the plate and incubated for 10 minutes at 23 °C. 4 μl of […] Detection reagent containing 0.44 μg/ml of Streptavidin-Europium cryptate and 4 μg/ml of anti-6His-XL665 monoclonal antibody was added to the plate and incubated for 60 minutes at 23 °C. The Homogeneous Time Resolved Fluorescent (HTRF) signal was then measured on an Envision plate reader using and excitation wavelength of 337 nm and emission wavelengths of 615 nm and 665 nm. Normalized percent inhibition was then calculated using the following equation: % Inhibition normalized=(compound signal-min signal)/(max signal-min signal)*100%, where Maximum signal was substrate only wells and Minimum signal was enzyme and substrate well. IC50 was calculated by fitting % Inhibition values and log of compound concentrations to nonlinear regression (log(inhibitor) vs. response—Variable slope(four parameters)) with GraphPad 9.4.1
For biochemical activity, bracket is denoted as: A<100 nM; 100 nM<B<500 nM; C>500 nM
For orientation: In TR-FRET formats the signal depends on donor and acceptor labels being close together.

In assay [2] the test system is Kuramochi cells. The experiment in a line: Cellular Viability Assay (5 day Kuramochi cell viability, CellTiter-Glo). To be noted: 5 days, 37 °C, growth inhibition relative to Day 0 (T0) and DMSO. It counts as cell-based. The protocol:
Kuramochi cells were seeded at a density of 1000 cells per well in a 384-well, white, sterile, clear bottom plate, using a Multidrop liquid dispenser and incubated for 24 hours at 37 °C in a 5% CO2 humidified environment. 24 hours later, compounds were added starting at a top dose of 10 μM for a 9-point dose response curve at a 1:3 dilution using an iDOT HT liquid handler and incubated for 5 days at 37 °C in a 5% CO2 humidified environment. After 5 days and at Day 0, plates were incubated at room temperature for 30 minutes followed by the addition of 30 μl of CellTiter-Glo Reagent. Plates were then mixed for 10 minutes on an orbital shaker followed by incubation at room temperature for 20 minutes. Luminescence was then read using the Envision plate reader. Percent Growth Inhibition was then calculated using the following equation: Percent Growth Inhibition normalized=100−(compound signal−T0)/(max signal−T0)*100%, where Max Signal refers to the DMSO only treated cells and T0 refers to the Day0 viability measurement. Growth Inhibition 50 was then calculated using the following equation: Y=Bottom+(Top−Bottom)/(1+10^((Log IC50−X)*hillslope)).
For cell activity, bracket is denoted as: A<1 uM; 1 uM<B<5 uM; C>5 uM.
On the technique in general: ATP-based viability assays read luminescence as a measure of living cells.

Some results are limits rather than exact numbers.

T1 sequence (Q86W56 389-976): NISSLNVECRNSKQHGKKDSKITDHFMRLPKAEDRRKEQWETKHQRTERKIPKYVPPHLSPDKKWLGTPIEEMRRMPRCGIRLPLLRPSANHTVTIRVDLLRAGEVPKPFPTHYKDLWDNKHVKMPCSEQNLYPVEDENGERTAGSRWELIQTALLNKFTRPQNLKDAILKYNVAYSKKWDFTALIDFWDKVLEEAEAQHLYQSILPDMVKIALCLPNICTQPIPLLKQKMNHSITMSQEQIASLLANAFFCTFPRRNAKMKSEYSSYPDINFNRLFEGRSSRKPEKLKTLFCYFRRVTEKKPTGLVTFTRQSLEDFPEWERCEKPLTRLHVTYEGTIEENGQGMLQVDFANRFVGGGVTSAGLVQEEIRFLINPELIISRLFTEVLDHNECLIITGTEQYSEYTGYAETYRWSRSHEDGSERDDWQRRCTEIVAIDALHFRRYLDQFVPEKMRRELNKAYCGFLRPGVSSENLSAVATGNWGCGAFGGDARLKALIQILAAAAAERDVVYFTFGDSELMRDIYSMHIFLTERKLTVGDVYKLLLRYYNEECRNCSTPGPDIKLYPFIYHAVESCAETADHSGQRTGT

Regarding `CC1(NS(=O)(=O)c2cc(N3CCC4(CC3)COC4)n3ncc(-c4nnc(C(F)F)s4)c3c2)CC1` [Example 1, 3-(5-(difluoromethyl)-1,3,4-thiadiazol-2-yl)-N-(1-methylcyclopropyl)-7-(2-oxa-7-azaspiro[3.5]nonan-7-yl)pyrazolo[1,5-a]pyridine-5-sulfonamide], the IC50 (as a rule, the point on the concentration scale where inhibition reaches its midpoint) in assay [1] was under 0.1 µM; in assay [2], under 1 µM.
For `N#CC1(NS(=O)(=O)c2cc(N3CCC4(CC3)COC4)n3ncc(-c4nnc(C(F)F)s4)c3c2)CC1` [Example 2, N-(1-cyanocyclopropyl)-3-(5-(difluoromethyl)-1,3,4-thiadiazol-2-yl)-7-(2-oxa-7-azaspiro[3.5]nonan-7-yl)pyrazolo[1,5-a]pyridine-5-sulfonamide] the same measures were under 0.1 µM and under 1 µM.
As to `N#CC1(NS(=O)(=O)c2cc(N3CCN(C(=O)C4CC4)CC3)n3ncc(-c4nnc(C(F)F)s4)c3c2)CC1` [Example 3, N-(1-cyanocyclopropyl)-7-[4-(cyclopropanecarbonyl)piperazin-1-yl]-3-[5-(difluoromethyl)-1,3,4-thiadiazol-2-yl]pyrazolo[1,5-a]pyridine-5-sulfonamide], the IC50 is under 0.1 µM in assay [1] and under 1 µM in assay [2].
In the case of `C#CC1(NS(=O)(=O)c2cc(N3CCC4(CC3)COC4)n3ncc(-c4nnc(C(F)F)s4)c3c2)CC1` [Example 4, 3-(5-(difluoromethyl)-1,3,4-thiadiazol-2-yl)-N-(1-ethynylcyclopropyl)-7-(2-oxa-7-azaspiro[3.5]nonan-7-yl)pyrazolo[1,5-a]pyridine-5-sulfonamide], the IC50 is under 0.1 µM in assay [1] and under 1 µM in assay [2].
As for `CC1(NS(=O)(=O)c2cc(N3CCC4(CC3)COC4)n3ncc(-c4nncs4)c3c2)CC1` [Example 5], the IC50 in assay [1] was under 0.1 µM; in assay [2] it was under 1 µM.
Take `N#CC1(NS(=O)(=O)c2cc(C3=CCN(C(=O)C4CC4)CC3)n3ncc(-c4nnc(C(F)F)s4)c3c2)CC1` [Example 6, N-(1-cyanocyclopropyl)-7-(1-(cyclopropanecarbonyl)-1,2,3,6-tetrahydropyridin-4-yl)-3-(5-(difluoromethyl)-1,3,4-thiadiazol-2-yl)pyrazolo[1,5-a]pyridine-5-sulfonamide]: the IC50 in assay [1] was under 0.1 µM; in assay [2], under 1 µM.
For the compound `Cc1nnc(-c2cnn3c(N4CCC5(CC4)COC5)cc(S(=O)(=O)NC4(C)CC4)cc23)s1` [Example 7, 3-(5-methyl-1,3,4-thiadiazol-2-yl)-N-(1-methylcyclopropyl)-7-(2-oxa-7-azaspiro[3.5]nonan-7-yl)pyrazolo[1,5-a]pyridine-5-sulfonamide], the IC50 is under 0.1 µM in assay [1] and under 1 µM in assay [2].
As to `CC1(NS(=O)(=O)c2cc(N3CCC4(CC3)COC4)n3ncc(-c4nnc(C5(C#N)CC5)s4)c3c2)CC1` [Example 8, 3-(5-(1-cyanocyclopropyl)-1,3,4-thiadiazol-2-yl)-N-(1-methylcyclopropyl)-7-(2-oxa-7-azaspiro[3.5]nonan-7-yl)pyrazolo[1,5-a]pyridine-5-sulfonamide], the values for the IC50 in assay [1] and in assay [2] were under 0.1 µM and under 1 µM, respectively.
For `Cc1nnc(-c2cnn3c(N4CCC5(CC4)COC5)cc(S(=O)(=O)NC4(C)CC4)cc23)o1` [Example 9, 3-(5-methyl-1,3,4-oxadiazol-2-yl)-N-(1-methylcyclopropyl)-7-(2-oxa-7-azaspiro[3.5]nonan-7-yl)pyrazolo[1,5-a]pyridine-5-sulfonamide] the same measures were 0.1 to 0.5 µM and under 1 µM.
For the compound `O=S(=O)(NC1(C(F)F)CC1)c1cc(N2CCC3(CC2)COC3)n2ncc(-c3nnc(C(F)F)s3)c2c1` [Example 10, 3-(5-(difluoromethyl)-1,3,4-thiadiazol-2-yl)-N-(1-(difluoromethyl)cyclopropyl)-7-(2-oxa-7-azaspiro[3.5]nonan-7-yl)pyrazolo[1,5-a]pyridine-5-sulfonamide], the IC50 in assay [1] was under 0.1 µM; in assay [2] it was under 1 µM.
As to `N#CC1(NS(=O)(=O)c2cc(C3CCN(C(=O)C4CC4)CC3)n3ncc(-c4nnc(C(F)F)s4)c3c2)CC1` [Example 11, N-(1-cyanocyclopropyl)-7-[1-(cyclopropanecarbonyl)-4-piperidyl]-3-[5-(difluoromethyl)-1,3,4-thiadiazol-2-yl]pyrazolo[1,5-a]pyridine-5-sulfonamide], the IC50 in assay [1] is under 0.1 µM; in assay [2] it was under 1 µM.
On to `CC1(NS(=O)(=O)c2cc(N3CCC4(CC3)COC4)n3ncc(-c4nnc(C5(F)CC5)s4)c3c2)CC1` [Example 12, 3-(5-(1-fluorocyclopropyl)-1,3,4-thiadiazol-2-yl)-N-(1-methylcyclopropyl)-7-(2-oxa-7-azaspiro[3.5]nonan-7-yl)pyrazolo[1,5-a]pyridine-5-sulfonamide], for which the IC50 is under 0.1 µM in assay [1] and under 1 µM in assay [2].
In assay [1], `CC1(NS(=O)(=O)c2cc(N3CCC4(CC3)COC4)n3ncc(-c4nc(C(F)F)ns4)c3c2)CC1` [Example 25, 3-(3-(difluoromethyl)-1,2,4-thiadiazol-5-yl)-N-(1-methylcyclopropyl)-7-(2-oxa-7-azaspiro[3.5]nonan-7-yl)pyrazolo[1,5-a]pyridine-5-sulfonamide] gave an IC50 of under 0.1 µM.
In assay [1], `O=C(N1CCN(c2cc(S(=O)(=O)NC34CC(C3)C4)cc3c2cnn3-c2nnc(C(F)F)s2)CC1)N1CC[C@H](O)C1` [Example 27, N-(1-bicyclo [1.1.1]pentanyl)-1-[5-(difluoromethyl)-1,3,4-thiadiazol-2-yl]-4-[4-[(3S)-3-hydroxypyrrolidine-1-carbonyl]piperazin-1-yl] indazole-6-sulfonamide] returned an IC50 of over 0.5 µM.
The same measure, in the same setting: the same measure for `CC(=O)N1CCN(c2cc(S(=O)(=O)NC3(C)CC3)cc3c2cnn3-c2nnc(C3(O)CCC3)s2)CC1` [Example 29, 4-(4-acetylpiperazin-1-yl)-1-[5-(1-hydroxycyclobutyl)-1,3,4-thiadiazol-2-yl]-N-(1-methylcyclopropyl)indazole-6-sulfonamide]: 0.1 to 0.5 µM; for `CC(=O)N1CCN(c2cc(S(=O)(=O)NC3(C)CC3)cc3c2cnn3-c2nc3c(s2)C(C)(O)COC3)CC1` (stereo not drawn) [Example 30, 4-(4-acetylpiperazin-1-yl)-1-(7-hydroxy-7-methyl-6,7-dihydro-4H-pyrano[3,4-d]thiazol-2-yl)-N-(1-methylcyclopropyl)-1H-indazole-6-sulfonamide]: over 0.5 µM; for `CC(=O)N1CCN(c2cc(S(=O)(=O)NC3(C)CC3)cn3c(-c4nnc(C5(C#N)CC5)s4)cnc23)CC1` [Example 38, 8-(4-acetylpiperazin-1-yl)-3-(5-(1-cyanocyclopropyl)-1,3,4-thiadiazol-2-yl)-N-(1-methylcyclopropyl)imidazo[1,2-a]pyridine-6-sulfonamide]: under 0.1 µM.
In the case of `N#CC1(NS(=O)(=O)c2cc3c(-c4nnc(C(F)F)s4)ncn3c(N3CCC4(CC3)COC4)c2F)CC1` [Example 41, N-(1-cyanocyclopropyl)-1-(5-(difluoromethyl)-1,3,4-thiadiazol-2-yl)-6-fluoro-5-(2-oxa-7-azaspiro[3.5]nonan-7-yl)imidazo[1,5-a]pyridine-7-sulfonamide], in assay [1], the IC50 was under 0.1 µM.

The record behind these values is patent US20260356835A1, “BICYCLIC HETEROARYL COMPOUNDS” (QuantX Biosciences US, Inc., priority 2023, published 2026).
